In PMC6193035, “Novel small molecules affecting cell membrane as potential therapeutics for avian pathogenic Escherichia coli” (Scientific Reports, 2018):
Marks after values point to notes of the source that are not given here.

What was measured:
[1] = tested on: intracellular APEC O78, O2, and O1 in infected Caco-2, HD11, and THP1 cells; experiment: Intracellular survival assay, statements over all serotypes and cells; assay type: cell-based, Escherichia coli; details: for minimal effective concentration: Escherichia coli, 6 h, O78, O2 and O1, Caco-2, HD11, THP-1, read-out: concentration clearing intracellular APEC; for ranking in clearing intracellular APEC: all tested serotypes and cells
Method: (§1) Intracellular survival assay was conducted as described previously[28],[29] to determine the effect of cidal SMs on APEC survival in phagocytic (HD11, THP-1) and non-phagocytic (Caco-2) cells. Briefly, mid-logarithmic phase grown APEC O78, O1, and O2 were washed and adjusted to 1 × 10^7 CFU/mL in cell culture incomplete media (no FBS and antibiotics). One-hundred microlitres adjusted APEC suspension was added at multiplicity of infection (MOI) 10 to wells of 96-well cell culture plate containing cultured macrophage (HD11, THP-1) and epithelial cells (Caco-2) and incubated for 1 h and 3 h, respectively. […] The cells were then lysed with 100 µL of 0.1% Triton X-100 for 5 mins, serially diluted, and plated on LB agar plate to enumerate viable bacteria. The intracellular bacteria in SMs treated wells were compared with DMSO (1%) treated wells. Two independent experiments in duplicate wells for each concentration of SMs were conducted.

APEC O15 = experiment: MIC and MBC determination in M63 media; assay type: cell-based; details: Escherichia coli
[2] = tested on: biofilm embedded APEC O78; experiment: MBEC High-throughput (HTP) assay; assay type: cell-based, Escherichia coli; details: 18 h challenge in M63 media
Method: The effect of cidal SMs against biofilm embedded APEC was determined using MBEC High-throughput (HTP) assay (Innovotech Inc., AB, Canada)[22]. Briefly, 150 μL of 0.05 OD600 adjusted APEC O78 culture was aliquoted into each well of the MBEC device containing polystyrene pegs and incubated at 37 °C for 36 h in LB media under stationary condition. […] The plate was incubated in the dark for 18 h at 37 °C with rotation at 110 rpm. The DMSO (1%) and […] media were used as positive and negative controls, respectively. Following incubation, MIC of SMs in challenged plate was recorded. The SMs exposed pegs were then transferred to a new 96-well plate containing PBS and sonicated for 30 mins (Aquasonic ultrasonic cleaner, VWR) to disrupt the biofilm. The sonicated suspensions were ten-fold serially diluted and plated on LB agar plate. Biofilm embedded APEC bacteria were enumerated and minimum biofilm eradication concentration (MBEC) of SMs were determined as described previously. Two independent experiments were conducted.

APEC O35 = experiment: MIC and MBC determination in M63 media; assay type: cell-based; details: Escherichia coli
APEC O8 = experiment: MIC and MBC determination in M63 media; assay type: cell-based; details: Escherichia coli
APEC O78 [3] = experiment: MIC and MBC determination in M63 media; assay type: cell-based, Escherichia coli; details: Escherichia coli; for MBC: subculture on LB agar
Method: (§2) One microlitre SM of each concentration was transferred to each well of a 96-well plate containing 100 µL of the 0.05 OD600 adjusted APEC O78 culture in M63 media. Growth was monitored in Sunrise - Absorbance microplate reader as described above. MIC was indicated by lowest concentration of SM with non-elevated OD600 measurement. MBC was determined by absence of APEC growth on LB agar plate following subculture. […] Two independent experiments were conducted.

APEC O2-211 = experiment: MIC and MBC determination in M63 media; assay type: cell-based; details: Escherichia coli; APEC O2-211, M63 media
APEC O78 [4] = experiment: Loss of 260/280 nm absorbing materials assay; assay type: cell-based, Escherichia coli; details: 2X MBC, 1 h; for Absorbance 280 nm of treated supernatant: DMSO 2.58; for Absorbance 280 nm of treated supernatant / Absorbance 260 nm of treated supernatant: superscript a P < 0.05 vs DMSO; for Absorbance 260 nm of treated supernatant: DMSO 3.77
Method: (§3) Membrane permeability assays (crystal violet (CV) uptake and loss of 260/280 nm absorbing materials) were conducted as described previously. […] CV uptake was measured using the formula: (OD DMSO − OD SM/OD DMSO × 100). Two independent experiments in duplicates were conducted.

APEC O78-53 = experiment: MIC and MBC determination in M63 media; assay type: cell-based; details: Escherichia coli; APEC O78-53, M63 media
Method: as §2

APEC O1-63 = experiment: MIC and MBC determination in M63 media; assay type: cell-based; details: Escherichia coli; APEC O1-63, M63 media
APEC O1 = experiment: MIC and MBC determination in M63 media; assay type: cell-based; details: Escherichia coli
[5] = tested on: intracellular APEC O2 in THP-1 cells; experiment: Intracellular survival assay; assay type: cell-based, Escherichia coli; details: for minimal effective concentration: Escherichia coli, O2, THP-1, 6 h treatment, read-out: SMs intracellular APEC clearance concentration; for concentration at which the SM significantly (P < 0.01) reduced intracellular APEC (superscript of t-statistic): O2, THP-1, 6 h
Method: as §1

[6] = tested on: intracellular APEC O2 in Caco-2 cells; experiment: Intracellular survival assay; assay type: cell-based, Escherichia coli; details: for minimal effective concentration: Escherichia coli, O2, Caco-2, 6 h treatment, read-out: SMs intracellular APEC clearance concentration; for intracellular APEC clearance concentration as multiple of MIC (superscript): O2, Caco-2; for concentration at which the SM significantly (P < 0.01) reduced intracellular APEC (superscript of t-statistic): O2, Caco-2, 6 h
Method: as §1

APEC O109 = experiment: MIC and MBC determination in M63 media; assay type: cell-based; details: Escherichia coli
APEC O2 = experiment: MIC and MBC determination in M63 media; assay type: cell-based; details: Escherichia coli
APEC O78 [7] = experiment: Bacterial cytological profiling by confocal microscopy; assay type: cell-based, Escherichia coli; details: 2X MBC, 2 h
Method: Confocal microscopy was used for bacterial cytological profiling (BCP) to identify the cellular pathways targeted by SMs as described previously. […] After incubation, treated cultures were centrifuged, washed, and resuspended in 100 µL PBS. FM4-64 (#T13320 Molecular Probes/Invitrogen) (1 µg/mL) and SYTO-9 (#S34854 Molecular Probes/Invitrogen) (5 µM) were added to the bacterial cultures and incubated for 45 mins at room temperature with shaking at 150 rpm. Cultures were then centrifuged, washed, and resuspended in PBS to 1/10th volume of the original cultures.

APEC O115 = experiment: MIC and MBC determination in M63 media; assay type: cell-based; details: Escherichia coli
APEC O18 = experiment: MIC and MBC determination in M63 media; assay type: cell-based; details: Escherichia coli
APEC O78 [8] = experiment: Crystal violet (CV) uptake assay; assay type: cell-based, Escherichia coli; details: 2X MBC, 30 mins; P < 0.05, Student's t-test
Method: as §3

Compound	minimal effective concentration [1] [µM]	ranking in clearing intracellular APEC [1]	MBC (APEC O15) [µM]	MIC (APEC O15) [µM]	MBEC as multiple of MIC (superscript) [2]	MBC (APEC O35) [µM]	MIC (APEC O35) [µM]	MBC (APEC O8) [µM]	MIC (APEC O8) [µM]	MIC (APEC O78 [3]) [µM]	MBC (APEC O78 [3]) [µM]	MBC (APEC O2-211) [µM]	MIC (APEC O2-211) [µM]	260 nm absorbing materials in supernatant compared with DMSO (APEC O78 [4])	280 nm absorbing materials in supernatant compared with DMSO (APEC O78 [4])	Absorbance 280 nm of treated supernatant (APEC O78 [4])	Absorbance 260 nm of treated supernatant (APEC O78 [4])	MBC (APEC O78-53) [µM]	MIC (APEC O78-53) [µM]	MBC (APEC O1-63) [µM]	further results
CC1CCC(C(C)C)C(OC(=O)Cn2c[n+](CC(=O)OC3CC(C)CCC3C(C)C)c3ccccc32)C1 (stereo not drawn) [SM4]	≤ 100	most effective SMs in clearing intracellular APEC serotypes in all tested cells	25	25	a (0.5X MIC)	25	25	25	25	25	50	25	25	significantly (P < 0.05, Student’s t-test) increased	significantly (P < 0.05, Student’s t-test) increased	2.69^a	3.91^a	50	25	50	MIC (APEC O1-63): 25 µM; MBC (APEC O1): 50 µM; MIC (APEC O1): 25 µM; minimal effective concentration [5]: 100 µM; concentration at which the SM significantly (P < 0.01) reduced intracellular APEC (superscript of t-statistic) [5]: b (1X MIC); minimal effective concentration [6]: 100 µM; intracellular APEC clearance concentration as multiple of MIC (superscript) [6]: c (4X MIC); concentration at which the SM significantly (P < 0.01) reduced intracellular APEC (superscript of t-statistic) [6]: c (2XMIC); MBC (APEC O109): 25 µM; MIC (APEC O109): 25 µM; MBC (APEC O2): 50 µM; MIC (APEC O2): 25 µM; cytological profile (FM4-64 / SYTO-9 staining) (APEC O78 [7]): absence of FM4-64 stained membrane (membrane disruptors); MBC (APEC O115): 25 µM; MIC (APEC O115): 25 µM; MBC (APEC O18): 50 µM; MIC (APEC O18): 25 µM
CCN1/C(=C/c2ccc3ccccc3[n+]2CC)C=Cc2ccccc21 [SM9]	≤ 100	most effective SMs in clearing intracellular APEC serotypes in all tested cells	100	25	b (1X MIC)	50	25	50	25	25	50	25	25	significantly (P < 0.05, Student’s t-test) increased	significantly (P < 0.05, Student’s t-test) increased	2.78^a	3.99^a	25	25	100	uptake of crystal violet compared with DMSO (APEC O78 [8]): increased the uptake of crystal violet; MIC (APEC O1-63): 50 µM; MBC (APEC O1): 50 µM; MIC (APEC O1): 25 µM; minimal effective concentration [5]: 50 µM; concentration at which the SM significantly (P < 0.01) reduced intracellular APEC (superscript of t-statistic) [5]: b (1X MIC); minimal effective concentration [6]: 100 µM; intracellular APEC clearance concentration as multiple of MIC (superscript) [6]: c (4X MIC); concentration at which the SM significantly (P < 0.01) reduced intracellular APEC (superscript of t-statistic) [6]: c (2XMIC); MBC (APEC O109): 50 µM; MIC (APEC O109): 25 µM; MBC (APEC O2): 50 µM; MIC (APEC O2): 25 µM; cytological profile (FM4-64 / SYTO-9 staining) (APEC O78 [7]): filamentous or short rods (spheroplasts) morphology (PG synthesis inhibitors); MBC (APEC O115): 50 µM; MIC (APEC O115): 25 µM; MBC (APEC O18): 100 µM; MIC (APEC O18): 25 µM
